This assay has as its system glucocorticoid receptor. Nature of the assay: One or more of the above assays (GR binding and GR cell assays; not specified which). It is filed as cell-based. Particulars: in one or more of the above assays. Here is the method:
This assay uses fluorescence polarization (FP) to quantitate the ability of test compounds to compete with tetramethyl rhodamine (TAMRA)-labeled dexamethasone for binding to a human glucocorticoid receptor (GR) complex prepared from an insect expression system. The assay buffer was: 10 mM TES, 50 mM KCl, 20 mM Na2MoO4.2H2O, 1.5 mM EDTA, 0.04% w/v CHAPS, 10% v/v glycerol, 1 mM dithiothreitol, pH 7.4. Test compounds were dissolved to 1 mM in neat DMSO and then further diluted to 10×assay concentration in assay buffer supplemented with 10% v/v DMSO. Test compounds were serially diluted at 10×assay concentrations in 10% DMSO-containing buffer in 96-well polypropylene plates. […] Positive controls were reaction mixtures containing no test compound; negative controls (blanks) were reaction mixtures containing 0.7 μM to 2 μM dexamethasone. […] IC50 values were determined by iterative non-linear curve fitting of the FP signal data to a 4-parameter logistic equation.
B. Glucocorticoid Receptor Cell Assays
1. Induction of Aromatase in Fibroblasts (Cell Assay for Transactivation)
Dexamethasone, a synthetic ligand to the glucocorticoid receptor (GR), induces expression of aromatase in human foreskin fibroblast cells. The activity of aromatase is measured by the conversion of testosterone to estradiol in culture media.
On the day of the experiment, the media in the wells is replaced with fresh media. Cells are treated with test compounds to final concentrations of 10^−5 M to 10 ^−8 M, and testosterone to a final concentration of 300 ng/mL. Each well has a total volume of 100 μL. Samples are made in duplicates. Control wells include: (a) wells that receive testosterone only, and (b) wells that receive testosterone plus 2 μM of dexamethasone to provide maximum induction of aromatase. Plates are incubated at 37° C. overnight (15 to 18 hours), and supernatants are harvested at the end of incubation. […] The amount of estradiol is inversely proportional to the ELISA signals in each well. The extent of aromatase induction by test compounds is expressed as a relative percentage to dexamethasone. EC50 values of test compounds are derived by non-linear curve fitting.
2. Inhibition of IL-6 Production in Fibroblasts (Cell Assay for Transrepression)
Human foreskin fibroblast cells produce IL-6 in response to stimulation by pro-inflammatory cytokine IL-1.
On the next day, media in the wells is replaced with fresh media. Cells are treated with IL-1 (rhIL-1α, R&D Systems Cat. No. 200-LA) to a final concentration of 1 ng/mL, and with test compounds to final concentrations of 10 ^−5 M to 10 ^−8 M, in a total volume of 200 μL per well. Samples are done in duplicates. […] Positive control wells receive IL-1 only and represent maximum (or 100%) amount of IL-6 production. Plates are incubated at 37° C. overnight (15 to 18 hours), and supernatants are harvested at the end of incubation. IL-6 levels in the supernatants are determined by the ELISA kits for IL-6 (MedSystems Diagnostics GmbH, Vienna, Austria, Cat. No. BMS213TEN) according to manufacture's instructions. The extent of inhibition of IL-6 by test compounds is expressed in percentage relative to positive controls. IC50 values of test compounds are derived by non-linear curve fitting.
Evaluation of agonist or antagonist activity of compounds binding to the glucocorticoid receptor may be determined by any of the assays.
3. Modulation of Tyrosine Aminotransferase (TAT) Induction in Rat Hepatoma Cells
Testing of compounds for agonist or antagonist activity in induction of tyrosine aminotransferase (TAT) in rat hepatoma cells.
H4-II-E-C3 cells were incubated overnight in 96 well plates (20,000 cells/100 μL/well) in MEM medium containing 10% heat inactivated FBS and 1% nonessential amino acids. On the next day, cells were stimulated with the indicated concentrations of dexamethasone or test compound (dissolved in DMSO, final DMSO concentration 0.2%) for 18 hours. Control cells were treated with 0.2% DMSO.

For the molecule `Cc1cc(CC(O)(CC(C)(C)c2cc(F)ccc2O)C(F)(F)F)cc(C)c1C#N` (centres unmarked) [4-[4-(5-Fluoro-2-hydroxyphenyl)-2-hydroxy-4-methyl-2-trifluoromethylpentyl]-2,6-dimethylbenzonitrile], the “activity as agonists of the glucocorticoid receptor function” value (“activity” for short) was “activity as agonists”.

With `CC(C)(CC(O)(Cc1cc(C(F)(F)F)cc(Cl)c1F)C(F)(F)F)c1cc(Br)cc2c1OCC2` (centres unmarked) [4-(5-Bromo-2,3-dihydrobenzofuran-7-yl)-2-(3-chloro-2-fluoro-5-trifluoromethylbenzyl)-1,1,1-trifluoro-4-methylpentan-2-ol], the “activity” value was “activity as agonists”.

Take `COc1ccc(F)cc1C(C)(C)CC(O)(Cc1cc(C)cc(C)c1C#N)C(F)(F)F` (centres unmarked) [2-[4-(5-Fluoro-2-methoxyphenyl)-2-hydroxy-4-methyl-2-trifluoromethylpentyl]-4,6-dimethylbenzonitrile]: the “activity” value is reported as “activity as agonists”.

With `Cc1cc2c(c(C(C)(C)CC(O)(Cc3ccc(C#N)cc3Cl)C(F)(F)F)c1)OCC2` (centres unmarked) [3-Chloro-4-[2-hydroxy-4-methyl-4-(5-methyl-2,3-dihydrobenzofuran-7-yl)-2-trifluoromethylpentyl]benzonitrile], the “activity” value is “activity as agonists”.

`CC(C)(CC(O)(Cc1ccc(C#N)cc1Cl)C1CC1)c1cccc2c1OCC2` (centres unmarked) [3-Chloro-4-[2-cyclopropyl-4-(2,3-dihydrobenzofuran-7-yl)-2-hydroxy-4-methylpentyl]benzonitrile]: the “activity” value was “activity as agonists”.

`COc1cc(F)ccc1C(C)(C)CC(O)(Cc1ccc(C#N)cc1Cl)C(F)(F)F` (centres unmarked) [3-Chloro-4-[4-(4-fluoro-2-methoxyphenyl)-2-hydroxy-4-methyl-2-trifluoromethylpentyl]benzonitrile]: the “activity” value was “activity as agonists”.

Consider `COc1cc(OC)cc(C(C)(C)CC(O)(Cc2ccc(C#N)cc2Cl)C(F)(F)F)c1` (centres unmarked) [3-Chloro-4-[4-(3,5-dimethoxyphenyl)-2-hydroxy-4-methyl-2-trifluoromethylpentyl]benzonitrile], for which the “activity” value was “activity as agonists”.

For `COc1ccc(F)cc1C(C)(C)CC(O)(Cc1ccc(C#N)c2ccccc12)C(F)(F)F` (centres unmarked) [4-[4-(5-Fluoro-2-methoxyphenyl)-2-hydroxy-4-methyl-2-trifluoromethylpentyl]naphthalene-1-carbonitrile], the “activity” value is “activity as agonists”.

With `COc1ccc(F)cc1C(C)(C)CC(O)(Cc1ccc(Cl)c(Cl)c1)C(F)(F)F` (centres unmarked) [2-(3,4-Dichlorobenzyl)-1,1,1-trifluoro-4-(5-fluoro-2-methoxyphenyl)-4-methylpentan-2-ol], the “activity” value is recorded as “activity as agonists”.

For `COc1ccc(F)cc1C(C)(C)CC(O)(Cc1ccc(Cl)cc1)C(F)(F)F` (centres unmarked) [2-(4-Chlorobenzyl)-1,1,1-trifluoro-4-(5-fluoro-2-methoxyphenyl)-4-methylpentan-2-ol], the “activity” value is reported as “activity as agonists”.

With `CC(C)(CC(O)(Cc1ccc(C#N)cc1Cl)C(F)(F)F)c1cc(F)ccc1O` (centres unmarked) [3-Chloro-4-[4-(5-fluoro-2-hydroxyphenyl)-2-hydroxy-4-methyl-2-trifluoromethylpentyl]benzonitrile], the “activity” value is listed as “activity as agonists”.

Take `N#Cc1ccc(CC(O)(CC2(c3cc(F)ccc3Cl)CCC2)C(F)(F)F)c(Cl)c1` (centres unmarked) [3-Chloro-4-{2-[1-(2-chloro-5-fluorophenyl)cyclobutylmethyl]-3,3,3-trifluoro-2-hydroxypropyl}benzonitrile]: the “activity” value is “activity as agonists”.

Regarding `COc1ccc(F)cc1C(C)(C)CC(O)(Cc1ccc(/C=N/O)cc1Cl)C(F)(F)F` (centres unmarked) [3-Chloro-4-[4-(5-fluoro-2-methoxyphenyl)-2-hydroxy-4-methyl-2-trifluoromethylpentyl]benzaldehyde oxime], the “activity” value is “activity as agonists”.

As to `CC(C)(CC(O)(Cc1ccc(C#N)cc1Cl)C(F)(F)F)c1cc(Br)cc2c1OCC2` (centres unmarked) [4-[4-(5-Bromo-2,3-dihydrobenzofuran-7-yl)-2-hydroxy-4-methyl-2-trifluoromethylpentyl]-3-chlorobenzonitrile], the “activity” value is given as “activity as agonists”.

Take `CC(C)(CC(O)(Cc1ccc(C#N)cc1Cl)C(F)(F)F)c1ccc2c(c1)CCO2` (centres unmarked) [3-Chloro-4-[4-(2,3-dihydrobenzofuran-5-yl)-2-hydroxy-4-methyl-2-trifluoromethylpentyl]benzonitrile]: the “activity” value is reported as “activity as agonists”.

For the molecule `COc1ccc(F)cc1C(C)(C)CC(O)(Cc1ccc(/C(C)=N/O)cc1Cl)C(F)(F)F` (centres unmarked) [1-{3-Chloro-4-[4-(5-fluoro-2-methoxyphenyl)-2-hydroxy-4-methyl-2-trifluoromethylpentyl]phenyl}ethanone oxime], the “activity” value is on record as “activity as agonists”.

For `CC(C)(CC(O)(Cc1ccc(C#N)cc1Cl)C(F)(F)F)c1ccccc1C(F)(F)F` (centres unmarked) [3-Chloro-4-[2-hydroxy-4-methyl-2-trifluoromethyl-4-(2-trifluoromethylphenyl)pentyl]benzonitrile], the “activity” value is listed as “activity as agonists”.

For the molecule `Cc1cc(C)c(C#N)c(CC(O)(CC(C)(C)c2cc(F)ccc2O)C(F)(F)F)c1` (centres unmarked) [2-[4-(5-Fluoro-2-hydroxyphenyl)-2-hydroxy-4-methyl-2-trifluoromethylpentyl]-4,6-dimethylbenzonitrile], the “activity” value is “activity as agonists”.

For `Cc1cc(Br)cc(CC(O)(CC(C)(C)c2cc(F)ccc2O)C(F)(F)F)c1F` (centres unmarked) [2-[3-(5-Bromo-2-fluoro-3-methylbenzyl)-4,4,4-trifluoro-3-hydroxy-1,1-dimethylbutyl]-4-fluorophenol], the “activity” value is “activity as agonists”.

As for `COc1c(C(C)(C)CC(O)(Cc2ccc(C#N)cc2Cl)C(F)(F)F)ccc2ccccc12` (centres unmarked) [3-Chloro-4-[2-hydroxy-4-(1-methoxynaphthalen-2-yl)-4-methyl-2-trifluoromethylpentyl]benzonitrile], the “activity” value was “activity as agonists”.

On to `COc1ccc(F)cc1C(C)(C)CC(O)(Cc1ccc(C(C)=O)cc1Cl)C(F)(F)F` (centres unmarked) [1-{3-Chloro-4-[4-(5-fluoro-2-methoxyphenyl)-2-hydroxy-4-methyl-2-trifluoromethylpentyl]phenyl}ethanone], for which the “activity” value is on record as “activity as agonists”.

As to `Cc1ccc(C(C)(C)CC(O)(Cc2ccc(C#N)cc2Cl)C(F)(F)F)cc1` (centres unmarked) [3-Chloro-4-(2-hydroxy-4-methyl-4-p-tolyl-2-trifluoromethylpentyl)benzonitrile], the “activity” value is “activity as agonists”.

Take `COc1ccc(F)cc1C(C)(C)CC(O)(Cc1cc(C)c(C#N)c(C)c1)C(F)(F)F` (centres unmarked) [4-[4-(5-Fluoro-2-methoxyphenyl)-2-hydroxy-4-methyl-2-trifluoromethylpentyl]-2,6-dimethylbenzonitrile]: the “activity” value is reported as “activity as agonists”.

(Values after patent publication US7268152B2, “Glucocorticoid mimetics, methods of making them, pharmaceutical compositions, and uses thereof” (Boehringer Ingelheim Pharmaceuticals, Inc., priority 2002, dated 2007).)
